Data on one compound can be found in patent US20260000698A1 (priority 2022, published 2026).

One series concerns A549/ACE2/TMPRSS2 cells. Put plainly: in vitro. The following applies: cell viability at 50 μM.
Another series deals with SARS-CoV-2 Nsp14 MTase (Severe acute respiratory syndrome coronavirus 2, UniProt P0DTD1). The series can be described thus: biochemical. Type of series: biochemical.

Turning to `Nc1ncnc2c1ncn2[C@@H]1O[C@H](CNS(=O)(=O)c2ccc3ccccc3c2)[C@@H](O)[C@H]1O` [Compound 3, N-(((2R,3S,4R,5R)-5-(6-Amino-9H-purin-9-yl)-3,4-dihydroxytetrahydrofuran-2-yl)methyl)naphthalene-2-sulfonamide], the “CC50: NT (nontoxic)” value with A549/ACE2/TMPRSS2 cells is reported as “NT^b (NT, nontoxic, >95% cell viability at 50 μM;)”. Further, on SARS-CoV-2 Nsp14 MTase (LC-MS/MS assay, read-out: IC50), the IC50 (in general, the concentration needed to halve the response being measured) came out at 61 nM. Moreover, the “fold more active than compound 1” value at SARS-CoV-2 Nsp14 MTase (MTase IC50 vs compound 1) is over 150 fold.
